This assay relates to NL4-3 strain of HIV-1. In words: Inhibition of HIV replication: cyto-protection in Cell-Titer-Glo viability assay, MT4 cells infected with NL4-3 virus. It counts as cell-based. The note with it: Human immunodeficiency virus 1, NL43, 120 h, concentration leading to 50% of cyto-protection, 5 days incubation, CellTiter-Glo luminescence. Here is the method:
The antiviral activity, particularly against HIV, of compounds according to the invention is evaluated by the protocol described below.
Preparation of Virus Stock of the NL4-3 Strain of HIV-1 (Adachi et al, J Virol, 1986, 59(2):284-91).
The virus was prepared as described in Lopez et al (Lopez et al, Proc Natl Acad Sci USA., 2006, 103(40):14947-52, by transfecting 2×10^6 293 T cells (CRL-1573, ATCC) with following modifications: 6 μg of NL4-3 proviral DNA molecular clone were mixed with Fugene 6 transfection reagent from Roche, and used according to manufacturer's instructions. Forty eight hours later, transfected cell supernatants were harvested, filtered through 0.45-μm-pore-size filters, quantified for HIV-1 p24 antigen by using a Innotest HIV antigen mAb assay (Ingen) according to manufacturer's instructions, and used in infection experiments.
Serial dilutions of compounds to be tested were prepared in complete RPMI medium from 10 mM DMSO stock solutions, and distributed in a volume of 20 μL in 96 well Falcon 353072 Microtest™ tissue culture plate, in order to get 0.5% DMSO final concentration in each well, after the addition of infected cells. Control wells contained also 0.5% DMSO final concentration but no compound.
MT^4 cells (from the NIH AIDS Research and Reference Reagent Program) in RPMI complete medium were counted (10×10^6 cells per well in Falcon 353047 Multiwell™ 24 well) and infected for 2 hours at 37°, at a multiplicity of infection (moi) of 0.0001-0.00001. Cells were then centrifuged 3 min at 3000 rpm, and washed two times in 1 ml PBS to remove viruses that have not entered in cells. Infected cells were resuspended in complete RPMI at 1.25×10^6 cells/ml, and 80 μl of infected cells were distributed in each well containing compounds to be tested or control wells. The plates were then incubated at 37° for 5 days.
Assay Used to Measure the Inhibition of HIV Replication by the Compounds (According to (According to Gregg S. Jones et al., Antimicrobial Agents and Chemotherapy, 2009, 53 (3): 1194-1203).
After 5 days of incubation, 50 μl of CellTiter-Glo reagent (Promega Biosciences, Inc., Madison Wis., USA) were added to each well. Cell lysis was carried out at room temperature during 10 min, 150 μl of lysates were transferred in Packard Optiplate 96 well, and luminescence was read on a Fluoroskan (Thermo Scientific).
The EC50, or effective concentration 50, is the concentration of compound leading to 50% of cyto-protection in a Cell-Titer-Glo® viability assay based on MT^4 cells infected with NL4-3 virus (table 1).
As to `Cn1cc(-c2ccc(C(F)(F)F)c(C(OC(C)(C)C)C(=O)O)c2C2=CCC(C)(C)CC2)cn1` (stereo not drawn) [Example 15, 2-(tert-butoxy)-2-[2-(4,4-dimethylcyclohex-1-en-1-yl)-3-(1-methyl-1H-pyrazol-4-yl)-6-(trifluoromethyl)phenyl]acetic acid], it took 150 nM to reach a half-maximal effect (EC50). Turning to `CC(C)(C)OC(C(=O)O)c1c(C(F)(F)F)ccc(-c2cnn(CC(F)(F)F)c2)c1-c1ccc2c(c1)CCCO2` (stereo not drawn) [Example 22, 2-(tert-butoxy)-2-{2-(3,4-dihydro-2H-1-benzopyran-6-yl)-3-[1-(2,2,2-trifluoroethyl)-1H-pyrazol-4-yl]-6-(trifluoromethyl)phenyl}acetic acid], the EC50 (commonly the concentration at which the effect is half-maximal) was determined as 320 nM. For `CC1(C)CC=C(c2c(-c3ccncc3)ccc(C(F)(F)F)c2C(OC(C)(C)C)C(=O)O)CC1` (stereo not drawn) [Example 11, 2-(tert-butoxy)-2-[2-(4,4-dimethylcyclohex-1-en-1-yl)-3-(pyridin-4-yl)-6-(trifluoromethyl)phenyl]acetic acid], the EC50 worked out at 910 nM. `CC(C)(C)OC(C(=O)O)c1c(C(F)(F)F)ccc(-c2ccc(=O)n(CC3CCC3)c2)c1-c1ccc2c(c1)CCCO2` (stereo not drawn) [Example 30, 2-(tert-butoxy)-2-{3-[1-(cyclobutylmethyl)-6-oxo-1,6-dihydropyridin-3-yl]-2-(3,4-dihydro-2H-1-benzopyran-6-yl)-6-(trifluoromethyl)phenyl}acetic acid] gave an EC50 of 67 nM. For the molecule `COc1ccc(-c2ccc(C(F)(F)F)c(C(OC(C)(C)C)C(=O)O)c2-c2ccc3c(c2)CCCO3)cc1` (stereo not drawn) [Example 8, 2-(tert-butoxy)-2-[2-(3,4-dihydro-2H-1-benzopyran-6-yl)-3-(4-methoxyphenyl)-6-(trifluoromethyl)phenyl]acetic acid], the midpoint of the response, the EC50, lay at 240 nM. `Cc1ccc(-c2ccc(=O)n(CC3CCC3)c2)c(-c2ccc3c(c2C)CCCO3)c1C(OC(C)(C)C)C(=O)O` (stereo not drawn) [Example 37, 2-(tert-butoxy)-2-[3-(1-cyclobutylmethyl-6-oxo-1,6-dihydro-pyridin-3-yl)-6-methyl-2-[5-methyl-(3,4-dihydro-2H-1-benzopyran-6-yl)]phenyl]acetic acid] gave a 50% effective concentration (EC50) of 310 nM. Turning to `CC(C)(C)OC(C(=O)O)c1c(C(F)(F)F)ccc(-n2cc(Cl)cn2)c1-c1ccc2c(c1)CCCO2` (stereo not drawn) [Example 10, 2-[3-(4-chloro-1H-pyrazol-1-yl)-2-(3,4-dihydro-2H-1-benzopyran-6-yl)-6-(trifluoromethyl)phenyl]-2-(tert-butoxy)acetic acid], a half-maximal effect (EC50) was put at 480 nM. `CC(C)(C)OC(C(=O)O)c1c(C(F)(F)F)ccc(-c2cccc(C(N)=O)c2)c1-c1ccc2c(c1)CCCO2` (stereo not drawn) [Example 14, 2-(tert-butoxy)-2-[3-(3-carbamoylphenyl)-2-(3,4-dihydro-2H-1-benzopyran-6-yl)-6-(trifluoromethyl)phenyl]acetic acid] yielded a concentration giving a half-maximal response (EC50) of 780 nM.

Consider `CC(C)(C)OC(C(=O)O)c1c(C(F)(F)F)ccc(-c2ccc(=O)n(C3CC3)c2)c1-c1ccc2c(c1)CCCO2` (stereo not drawn) [Example 39, 2-(tert-butoxy)-2-[3-(1-cyclopropyl-6-oxo-1,6-dihydropyridin-3-yl)-2-(3,4-dihydro-2H-1-benzopyran-6-yl)-6-(trifluoromethyl)phenyl]acetic acid], for which the EC50 came out at 330 nM. The molecule `CC(C)(C)OC(C(=O)O)c1c(C(F)(F)F)ccc(C2=CCCC2)c1-c1ccc2c(c1)CCCO2` (stereo not drawn) [Example 3, 2-(tert-butoxy)-2-[3-(cyclopent-1-en-1-yl)-2-(3,4-dihydro-2H-1-benzopyran-6-yl)-6-(trifluoromethyl)phenyl]acetic acid] showed an EC50 of 400 nM. Take `CCCn1cc(-c2ccc(C(F)(F)F)c(C(OC(C)(C)C)C(=O)O)c2-c2ccc3c(c2)CCCO3)ccc1=O` (stereo not drawn) [Example 25, 2-(tert-butoxy)-2-[2-(3,4-dihydro-2H-1-benzopyran-6-yl)-3-(6-oxo-1-propyl-1,6-dihydropyridin-3-yl)-6-(trifluoromethyl)phenyl]acetic acid]: the EC50 turned out to be 220 nM. In turn, `CC(C)(C)OC(C(=O)O)c1c(C(F)(F)F)ccc(-c2ccc(C(N)=O)cc2)c1-c1ccc2c(c1)CCCO2` (stereo not drawn) [Example 13, 2-(tert-butoxy)-2-[3-(4-carbamoylphenyl)-2-(3,4-dihydro-2H-1-benzopyran-6-yl)-6-(trifluoromethyl)phenyl]acetic acid] had an EC50 of 830 nM.

With `CC(C)(C)OC(C(=O)O)c1c(C(F)(F)F)ccc(-c2ccncn2)c1-c1ccc2c(c1)CCCO2` (stereo not drawn) [Example 16, 2-(tert-butoxy)-2-[2-(3,4-dihydro-2H-1-benzopyran-6-yl)-3-(pyrimidin-4-yl)-6-(trifluoromethyl)phenyl]acetic acid], a half-maximal effect (EC50) was put at 940 nM. The value for `CC(=O)Nc1cccc(-c2ccc(C(F)(F)F)c(C(OC(C)(C)C)C(=O)O)c2-c2ccc3c(c2)CCCO3)c1` (stereo not drawn) [Example 24, 2-(tert-butoxy)-2-[3-(3-acetamidophenyl)-2-(3,4-dihydro-2H-1-benzopyran-6-yl)-6-(trifluoromethyl)phenyl]acetic acid] was 290 nM; that for `CC(C)(C)OC(C(=O)O)c1c(C(F)(F)F)ccc(-c2ccncc2F)c1-c1ccc2c(c1)CCCO2` (stereo not drawn) [Example 17, 2-(tert-butoxy)-2-[2-(3,4-dihydro-2H-1-benzopyran-6-yl)-3-(3-fluoropyridin-4-yl)-6-(trifluoromethyl)phenyl]acetic acid] was 250 nM; that for `CC(C)(C)OC(C(=O)O)c1c(C(F)(F)F)ccc(-c2ccc(=O)n(CC3CC3)c2)c1-c1ccc2c(c1)CCCO2` (stereo not drawn) [Example 27, 2-(tert-butoxy)-2-{3-[1-(cyclopropylmethyl)-6-oxo-1,6-dihydropyridin-3-yl]-2-(3,4-dihydro-2H-1-benzopyran-6-yl)-6-(trifluoromethyl)phenyl}acetic acid] was 79 nM. Regarding `CC(C)(C)OC(C(=O)O)c1c(C(F)(F)F)ccc(-c2cnn3ccccc23)c1-c1ccc2c(c1)CCCO2` (stereo not drawn) [Example 12, 2-(tert-butoxy)-2-[2-(3,4-dihydro-2H-1-benzopyran-6-yl)-3-{pyrazolo[1,5-a]pyridin-3-yl}-6-(trifluoromethyl)phenyl]acetic acid], the response was half-maximal at 420 nM (EC50).

`CC(C)(C)OC(C(=O)O)c1c(C(F)(F)F)ccc(-c2ccc(=O)n(Cc3ccccc3)c2)c1-c1ccc2c(c1)CCCO2` (stereo not drawn) [Example 26, 2-[3-(1-benzyl-6-oxo-1,6-dihydropyridin-3-yl)-2-(3,4-dihydro-2H-1-benzopyran-6-yl)-6-(trifluoromethyl)phenyl]-2-(tert-butoxy)acetic acid] gave an EC50 of 440 nM. The molecule `CCCc1cccc(-c2ccc(C(F)(F)F)c(C(OC(C)(C)C)C(=O)O)c2-c2ccc3c(c2)CCCO3)c1` (stereo not drawn) [Example 29, 2-(tert-butoxy)-2-[2-(3,4-dihydro-2H-1-benzopyran-6-yl)-3-(3-propylphenyl)-6-(trifluoromethyl)phenyl]acetic acid] registered an EC50 of 430 nM.

Molecule `CC(=O)Nc1ccc(-c2ccc(C(F)(F)F)c(C(OC(C)(C)C)C(=O)O)c2-c2ccc3c(c2)CCCO3)cc1` (stereo not drawn) [Example 21, 2-(tert-butoxy)-2-[3-(4-acetamidophenyl)-2-(3,4-dihydro-2H-1-benzopyran-6-yl)-6-(trifluoromethyl)phenyl]acetic acid] registered an EC50 of 170 nM. `CC(C)(C)OC(C(=O)O)c1c(C(F)(F)F)ccc(-c2cccs2)c1-c1ccc2c(c1)CCCO2` (stereo not drawn) [Example 7, 2-(tert-butoxy)-2-[2-(3,4-dihydro-2H-1-benzopyran-6-yl)-3-(thiophen-2-yl)-6-(trifluoromethyl)phenyl]acetic acid] gave an EC50 of 300 nM.

Molecule `CC(C)(C)OC(C(=O)O)c1c(C(F)(F)F)ccc(-c2ccc(N)cc2)c1-c1ccc2c(c1)CCCO2` (stereo not drawn) [Example 20, 2-[3-(4-aminophenyl)-2-(3,4-dihydro-2H-1-benzopyran-6-yl)-6-(trifluoromethyl)phenyl]-2-(tert-butoxy)acetic acid] displayed an EC50 of 150 nM. The result for `CCCc1cc(-c2ccc(C(F)(F)F)c(C(OC(C)(C)C)C(=O)O)c2-c2ccc3c(c2)CCCO3)ccn1` (stereo not drawn) [Example 28, 2-(tert-butoxy)-2-[2-(3,4-dihydro-2H-1-benzopyran-6-yl)-3-(2-propylpyridin-4-yl)-6-(trifluoromethyl)phenyl]acetic acid] reads 78 nM. Turning to `CC(C)(C)OC(C(=O)O)c1c(C(F)(F)F)ccc(-c2cccc(N)c2)c1-c1ccc2c(c1)CCCO2` (stereo not drawn) [Example 23, 2-[3-(3-aminophenyl)-2-(3,4-dihydro-2H-1-benzopyran-6-yl)-6-(trifluoromethyl)phenyl]-2-(tert-butoxy)acetic acid], the midpoint of the response, the EC50, lay at 190 nM.

The values are drawn from patent US9475802B2, “Inhibitors of viral replication, their process of preparation and their therapeutical uses” (LABORATOIRE BIODIM, priority 2012, dated 2016).
